In patent publication US20100009934A1, “BETA ADRENERGIC RECEPTOR AGONISTS FOR THE TREATMENT OF B-CELL PROLIFERATIVE DISORDERS” (CombinatoRx, Incorporated, priority 2008, published 2010):
Values joined by “and” are separate entries in the source; they are usually repeats but may differ in a detail not shown here. Equal values may be shown once. Read-outs that look alike come from different tables or passages of the source.

Legend:
beta 3 vs. beta 2 = details: Mol Phar 1994 46(2):357-63; cited from earlier work
[1] = tested on: Human Multiple Myeloma Cells (MM.1S); assay: Antiproliferative activity on MM.1S in the presence of beta adrenergic receptor antagonist (CGP 12177A or ICI 118,551); format: cell-based
[2] = tested on: Human Multiple Myeloma Cells (MM.1S); assay: Anti-proliferation assay (ATPLite, 72 hours), MM.1S
[3] = tested on: Human Multiple Myeloma Cells (EJM); assay: Anti-proliferation assay (ATPLite, 72 hours), EJM; details: for Antiproliferative Activity: DEX μM r7-r15: 2.03, 0.675, 0.225, 0.075, 0.025, 0.00834, 0.00278, 0.00093, 0
RPMI-8226 cells = details: soft agar, three weeks
Experimental: The effect of BAR agonists on cells grown in soft agar was also determined. This approach allows the measurement of long term cell viability after single agent or combination treatment. […] Cells were washed and plated in soft agar. After three weeks colonies were counted to determine cell viability.

[4] = tested on: RPMI-8226 multiple myeloma (MM) xenograft; details: Day 19; 10 mg/kg salmeterol, 0.5 mg/kg bortezomib, or both
Experimental: Dexamethasone was administered by intraperitoneal (IP) injection daily for thirty-six treatments (QD×36). Bortezomib was injected intravenously (IV) every third day for six treatments (Q3D×6).
Group 1—Vehicle (90% PBS+10% EtOH)
Significant endpoints included mean tumor growth inhibition (TGI) or regression, animal weight loss, and potential toxicity. […] Animals were implanted with cancer cells harvested from tissue culture and allowed to establish tumors in SCID mice. Treatment initiated when the mean tumor volume reached 137 mm^3 in size.

[5] = tested on: multiple myeloma tumor cells from patients; assay: MTT cell viability assay, multiple myeloma patient tumor cells; details: Homo sapiens, 48 h, read-out: tumor cell viability
Source text: Tumor cells were obtained via bone marrow aspirates and affinity selected using CD138-linked magnetic beads.

MM.1S cells = assay: Annexin V / propidium iodide apoptosis assay, MM.1S; format: cell-based, human; details: for induction of MM.1S cell apoptosis: 72 hours (FIG. 2)
Experimental: Effects on cell viability were determined by measuring the percent of cells that were annexin V positive (an early marker for apoptosis) and by measuring the percent of cells propidium iodide (PI) positive, an indicator that cellular membranes are compromised and a marker of cell death.

[6] = tested on: Human Multiple Myeloma Cells (MM.1S)
[7] = tested on: Human Multiple Myeloma Cells (ANBL-6); assay: Anti-proliferation assay (ATPLite, 72 hours), ANBL-6
[8] = tested on: Human Multiple Myeloma Cells (MM.1S) cultured in the presence of BAR agonist for one month; assay: Antiproliferative activity on MM.1S cultured one month in the presence of salmeterol or salbutamol; format: cell-based; details: MM.1S cultured in Salbutamol for one month (final 150 nM), DEX (μM): 2.0, 0.666, 0.23, 0.074, 0.024, 0.0082, 0.00274, 0.0009, 0
Source text: A recurrent problem in cancer therapy is that prolonged exposure of tumor cells to chemotherapeutic agents can generate cells resistant to agents that initially have antiproliferative or cell killing activity. […] Cells cultured for one month in the presence of BAR agonist were washed to remove drug and put into 384 well plates for 9×9 dose matrix combination screening with BAR agonists and dexamethasone.

[9] = tested on: human multiple myeloma cells (MM.1R); assay: Antiproliferative activity of salbutamol on MM.1R after transfection of siRNA; format: cell-based; details: 72 hours (FIG. 4)
Experimental: Specific gene silencing was greater than 60% as determined by real time PCR analysis 48 hours post-transfection. At 48 hours post-transfection, cells were exposed to the beta 2 receptor agonist salbutamol and incubated an additional 72 hours, and the compounds were assayed for antiproliferative activity.

[10] = Homo sapiens, MM1.S, read-out: percent inhibition of cell proliferation
[11] = Homo sapiens, Multiple myeloma cell, 72 h, read-out: percent inhibition of cell proliferation
[12] = Homo sapiens, MM1.S, 72 h, read-out: percent inhibition of cell proliferation
[13] = Homo sapiens, ANBL-6, 72 h, read-out: percent inhibition (% I)
[14] = Homo sapiens, MM1.S, 72 h, read-out: percent inhibition (% I)
[15] = Homo sapiens, MM1.S, read-out: Antiproliferative Activity (inhibition of proliferation)
[16] = Homo sapiens, ANBL-6, read-out: percent inhibition of cell proliferation

## CC(Cc1ccc(OCC(=O)O)cc1)NCC(O)c1cccc(Cl)c1 (stereo not drawn) [BRL37344, (4-(2-((2-(3-chlorophenyl)-2-hydroxyethyl)amino)propyl)phenoxy)acetic acid]
Beta 3 vs. beta 2
  selectivity for beta 3 vs. beta 2: 76 fold
[1]; [10]
  inhibition at 0.01 µM: -8.2%
  inhibition at 0.02 µM: -12%
[2]; [10]
  inhibition at 0.01 µM: 10%
  inhibition at 0.02 µM: 10%
[2]; MM.1S (Table 45)
  single agent antiproliferative activity: not very active

## CC(C)(C)NCC(O)c1cc(Cl)c(N)c(Cl)c1 (stereo not drawn) [Clenbuterol]
[2]; [10]
  inhibition at 0.0006 µM: 66%
  inhibition at 0.01 µM: 78%
  inhibition at […]: 61% and 62% and 57%

## CC(CCc1ccc(O)cc1)NCCc1ccc(O)c(O)c1 (stereo not drawn) [Dobutamine, dobutamine]
[1]; Homo sapiens, MM1.S, in the presence of 0.91 μM ICI, 118,551, Dobutamine 0.063 μM, Dexamethasone (μM) by row: r8 0.15, r9 0.076, r10 0.038, r11 0.019, r12 0.0095, r13 0, read-out: percent inhibition of cell proliferation
  inhibition at […]: 2.2%
[1]; Homo sapiens, MM1.S, in the presence of 0.91 μM ICI, 118,551, Dobutamine 0.13 μM, Dexamethasone (μM) by row: r8 0.15, r9 0.076, r10 0.038, r11 0.019, r12 0.0095, r13 0, read-out: percent inhibition of cell proliferation
  inhibition at […]: 2%
[1]; Homo sapiens, MM1.S, in the presence of 0.91 μM ICI, 118,551, Dobutamine 0.25 μM, Dexamethasone (μM) by row: r8 0.15, r9 0.076, r10 0.038, r11 0.019, r12 0.0095, r13 0, read-out: percent inhibition of cell proliferation
  inhibition at […]: -5.4%
[1]; Homo sapiens, MM1.S, in the presence of 0.91 μM ICI, 118,551, Dobutamine 0.51 μM, Dexamethasone (μM) by row: r8 0.15, r9 0.076, r10 0.038, r11 0.019, r12 0.0095, r13 0, read-out: percent inhibition of cell proliferation
  inhibition at […]: -2.8%
[1]; Homo sapiens, MM1.S, in the presence of 0.91 μM ICI, 118,551, Dobutamine 1.0 μM, Dexamethasone (μM) by row: r8 0.15, r9 0.076, r10 0.038, r11 0.019, r12 0.0095, r13 0, read-out: percent inhibition of cell proliferation
  inhibition at 1 µM: -1.8%
[3]; [11]
  inhibition at 0.0316 µM: -2.3%
  inhibition at 0.506 µM: 21.5%
[2]; [12]
  inhibition at 0.0316 µM: -2.04%
  inhibition at 0.506 µM: 22.9%
[2]; [10]
  inhibition at 1 µM: 28%

## Cc1ccc(OCC(O)C(C)NC(C)C)c2c1CCC2 (stereo not drawn) [ICI, 118,551]
[1]; in the presence of […] ICI, 118,551, Dobutamine 0 μM, Dexamethasone (μM) by row: r8 0.15, r9 0.076, r10 0.038, r11 0.019, r12 0.0095, r13 0 (ICI alone)
  percent inhibition of cell proliferation: 1.9%

## CCC(NC(C)C)C(O)c1ccc(O)c(O)c1 (stereo not drawn) [Isoetharine]
[3]; Isoetharine 0.000158 μM
  Antiproliferative Activity: 7.35
[3]; Isoetharine 0.000316 μM
  Antiproliferative Activity: 7.35
[3]; Isoetharine 0.00506 μM
  Antiproliferative Activity: 29

## CC(C)C[C@H](NC(=O)[C@H](Cc1ccccc1)NC(=O)c1cnccn1)B(O)O [bortezomib]
RPMI-8226 cells; 100 nM bortezomib for 5 hours
  colony number per 10,000 cells plated: 39 colonies
RPMI-8226 cells; 200 nM bortezomib for 5 hours
  colony number per 10,000 cells plated: 7 colonies
[4]
  tumor growth inhibition (TGI): 38%
[5]
  viability at 0.002 µM: 80%
MM.1S cells; 2 nM bortezomib, 72 hours (FIG. 3)
  cells annexin V positive: 50%
[6]
  inhibition: 30.8% and 19.6%

## COc1ccc(CC(C)NCC(O)c2ccc(O)c(NC=O)c2)cc1 (stereo not drawn) [formoterol]
[7]; [13]
  inhibition at 2.53 pM: 23.3%
  inhibition at 5.06 pM: 26.7%
  inhibition at 10.1 pM: 30%
  inhibition at 20.2 pM: 39.9%
  inhibition at 40.5 pM: 48.8%
  inhibition at 81 pM: 55.4%
[2]; [14]
  inhibition at 2.53 pM: 18.9%
  inhibition at 5.06 pM: 23.8%
  inhibition at 10.1 pM: 40.8%
  inhibition at 20.2 pM: 52.7%
  inhibition at 40.5 pM: 54.7%
  inhibition at 81 pM: 65.9%
[2]; [15]
  inhibition at 2.53 pM: 22.4%
  inhibition at 5.06 pM: 36.2%
  inhibition at 10.1 pM: 40.7%
  inhibition at 20.2 pM: 51%
  inhibition at 40.5 pM: 57.5%
  inhibition at 81 pM: 65.7%
[2]; Homo sapiens, MM1.S, read-out: inhibition of proliferation, single agent
  inhibition at 20.2 pM: 51%

## Nc1cccc2c1CN(C1CCC(=O)NC1=O)C2=O (stereo not drawn) [lenalidomide]
[7]; Salmeterol 0 μM (LEN alone), LEN μM r7-r15: 4.04, 2.02, 1.01, 0.505, 0.253, 0.126, 0.0632, 0.0316, 0
  Antiproliferative Activity: 53.5 and 51.8 and 52.5 and 44.8 and 34.3 and 61.9 and 52.8 and 54.3
MM.1S cells; 1 μM lenalidomide
  induction of MM.1S cell apoptosis: negligible effects

## CC(C)(C)NCC(O)c1ccc(O)c(CO)c1 (stereo not drawn) [salbutamol]
[8]; Salbutamol 0.00375 μM
  percent inhibition of cell proliferation: −5.8%
[8]; Salbutamol 0.00625 μM
  percent inhibition of cell proliferation: 4.6%
[8]; Salbutamol 0.0125 μM
  percent inhibition of cell proliferation: −1.9%
[8]; Salbutamol 0.05 μM
  percent inhibition of cell proliferation: 1.5%
[8]; Salbutamol 0.1 μM
  percent inhibition of cell proliferation: 11%
[8]; Salbutamol 0.2 μM
  percent inhibition of cell proliferation: 6.8%
[9]; MM.1R transfected with A2A receptor siRNA or control siRNA
  inhibition of proliferation: 65-68%
[9]; MM.1R transfected with two different siRNA targeting the beta 2 receptor
  Antiproliferative Activity: 39-45%
[2]; [10]
  inhibition at 9.1 pM: 10%
  inhibition at 0.00375 µM: 15%
  inhibition at 0.00625 µM: 30%
  inhibition at 0.0125 µM: 39%
  inhibition at 0.05 µM: 51%
  inhibition at 0.1 µM: 55%
  inhibition at 0.2 µM: 58%

## COc1cc2c(cc1OC)-c1cc(=Nc3c(C)cc(C)cc3C)n(C)c(=O)n1CC2 [trequinsin, 2,3,6,7-tetrahydro-9,10-dimethoxy-3-methyl-2-((2,4,6-trimethylphenyl)imino)-4H-pyrimido(6,1-a)isoquinolin-4-one]
[7]; [16]
  inhibition at 0.00464 µM: 2.91%
  inhibition at 0.125 µM: 4.39%
  inhibition at 0.375 µM: 7.82%
MM.1S cells; 2 μM trequinsin
  induction of MM.1S cell apoptosis: negligible effects
